Converted amounts (≈) assume the structure as drawn.
Test system: K. pneumoniae TK1401
Test: Antimicrobial susceptibility testing, broth microdilution method
Assay type: cell-based, Klebsiella pneumoniae
Conditions: K. pneumoniae isolate TK1401; broth microdilution method (footnote b)
Procedure: (§1) Testing was performed using a MicroScan WalkAway apparatus (Beckman Coulter, Brea, Calif., USA). The minimal inhibitory concentration (MIC) of colistin was confirmed using the Etest (bioMérieux, Marcy l'Etoile, France) and the broth microdilution method. Antimicrobial susceptibility was defined according to breakpoints listed in the Clinical and Laboratory Standards Institute (CLSI) guidelines (M100-S24).

Compound | Minimum inhibitory concentration [µg/mL]
Colistin | 64
Polymyxin B | 64

Same assay, conditions: Klebsiella pneumoniae, TK1401, read-out: Minimum inhibitory concentration

Compound | MIC [µg/mL]
CN(C)c1cc(NC(=O)CNC(C)(C)C)c(O)c2c1C[C@H]1C[C@H]3[C@H](N(C)C)C(O)=C(C(N)=O)C(=O)[C@@]3(O)C(O)=C1C2=O [Tigecycline] | 16 (≈ 27.3 µM)

Same assay, conditions: Klebsiella pneumoniae; K. pneumoniae isolate TK1401; broth microdilution method (footnote b); read-out: Minimum inhibitory concentration

Compound | MIC [µg/mL]
NCC[C@H](O)C(=O)N[C@@H]1C[C@H](N)[C@@H](O[C@H]2O[C@H](CN)CC[C@H]2N)[C@H](O)[C@H]1O[C@H]1O[C@H](CO)[C@@H](O)[C@H](N)[C@H]1O [Arbekacin] | > 256
O=C(N[C@H](CO)[C@H](O)c1ccc([N+](=O)[O-])cc1)C(Cl)Cl [Chloramphenicol] | > 256
C[C@@H]1O[C@@H]1P(=O)(O)O [Fosfomycin] | > 256
CN(C)c1ccc(O)c2c1C[C@H]1C[C@H]3[C@H](N(C)C)C(O)=C(C(N)=O)C(=O)[C@@]3(O)C(O)=C1C2=O [Minocycline] | 256 (≈ 560 µM)

Test system: K. pneumoniae TK1401
Test: Antimicrobial susceptibility testing, MicroScan WalkAway apparatus
Assay type: cell-based, Klebsiella pneumoniae
Conditions: K. pneumoniae isolate TK1401; MicroScan WalkAway; CLSI M100-S24 breakpoints
Procedure: as §1

Compound | Minimum inhibitory concentration [µg/mL]
CO[C@@]1(NC(=O)CSCC#N)C(=O)N2C(C(=O)O)=C(CSc3nnnn3C)CS[C@@H]21 [Cefmerazole] | >32
CO/N=C(\C(=O)N[C@@H]1C(=O)N2C(C(=O)O)=C(COC(C)=O)CS[C@H]12)c1csc(N)n1 [Cefotaxim] | >2
Gentamicin | >8

Same assay, conditions: Klebsiella pneumoniae; K. pneumoniae isolate TK1401; MicroScan WalkAway; CLSI M100-S24 breakpoints; read-out: Minimum inhibitory concentration

Compound | MIC [µg/mL]
NCC[C@H](O)C(=O)N[C@@H]1C[C@H](N)[C@@H](O[C@H]2O[C@H](CN)[C@@H](O)[C@H](O)[C@H]2O)[C@H](O)[C@H]1O[C@H]1O[C@H](CO)[C@@H](O)[C@H](N)[C@H]1O [Amikacin] | > 32
CC1(C)S[C@@H]2[C@H](NC(=O)[C@H](N)c3ccc(O)cc3)C(=O)N2[C@H]1C(=O)O [Amoxicillin] | > 16
CC1(C)S[C@@H]2[C@H](NC(=O)[C@H](N)c3ccccc3)C(=O)N2[C@H]1C(=O)O [Ampicillin] | > 16
N[C@@H](C(=O)N[C@@H]1C(=O)N2C(C(=O)O)=C(Cl)CS[C@H]12)c1ccccc1 [Cefaclor] | > 16
Cc1nnc(SCC2=C(C(=O)O)N3C(=O)[C@@H](NC(=O)Cn4cnnn4)[C@H]3SC2)s1 [Cefazolin] | > 16
C=CC1=C(C(=O)O)N2C(=O)[C@@H](NC(=O)/C(=N\O)c3csc(N)n3)[C@H]2SC1 [Cefdinir] | > 2
CO/N=C(\C(=O)N[C@@H]1C(=O)N2C(C(=O)[O-])=C(C[N+]3(C)CCCC3)CS[C@H]12)c1csc(N)n1 [Cefepime] | > 2
CN(C)CCn1nnnc1SCC1=C(C(=O)O)N2C(=O)[C@@H](NC(=O)Cc3csc(N)n3)[C@H]2SC1 [Cefotiam] | > 16
CO/N=C(\C(=O)N[C@@H]1C(=O)N2C(C(=O)[O-])=C(C[n+]3ccn4ncccc43)CS[C@H]12)c1nsc(N)n1 [Cefozopran] | > 16
COCC1=C(C(=O)O)N2C(=O)[C@@H](NC(=O)/C(=N\OC)c3csc(N)n3)[C@H]2SC1 [Cefpodoxime] | > 4
CC(C)(O/N=C(\C(=O)N[C@@H]1C(=O)N2C(C(=O)[O-])=C(C[n+]3ccccc3)CS[C@H]12)c1csc(N)n1)C(=O)O [Ceftazidime] | > 16
CO/N=C(\C(=O)N[C@@H]1C(=O)N2C(C(=O)O)=C(CSc3nc(=O)c(=O)[nH]n3C)CS[C@H]12)c1csc(N)n1 [Ceftriaxone] | > 16
C[C@@H](O)[C@H]1C(=O)N2C(C(=O)O)=C(S[C@@H]3CN[C@H](CNS(N)(=O)=O)C3)[C@H](C)[C@H]12 [Doripenem] | > 8
CO[C@@]1(NC(=O)CSC(F)F)C(=O)N2C(C(=O)O)=C(CSc3nnnn3CCO)CO[C@@H]21 [Flomoxef] | > 32
C[C@@H](O)[C@H]1C(=O)N2C(C(=O)O)=C(SCCN=CN)C[C@H]12 [Imipenem] | > 8
C[C@H]1COc2c(N3CCN(C)CC3)c(F)cc3c(=O)c(C(=O)O)cn1c23 [Levofloxacin] | > 4
C[C@@H](O)[C@H]1C(=O)N2C(C(=O)O)=C(S[C@@H]3CN[C@H](C(=O)N(C)C)C3)[C@H](C)[C@H]12 [Meropenem] | > 8
CCN1CCN(C(=O)N[C@@H](C(=O)N[C@@H]2C(=O)N3[C@@H]2SC(C)(C)[C@@H]3C(=O)O)c2ccccc2)C(=O)C1=O [Piperacillin] | > 64
NC[C@H]1O[C@H](O[C@H]2[C@H](O)[C@@H](O[C@H]3O[C@H](CO)[C@@H](O)[C@H](N)[C@H]3O)[C@H](N)C[C@@H]2N)[C@H](N)C[C@@H]1O [Tobramycin] | > 8

Same assay, conditions: breakpoints of CLSI guidelines M100-S24

Compound | Antimicrobial susceptibility of the isolate (in words)
C[C@@H]1O[C@@H]1P(=O)(O)O [Fosfomycin] | not susceptible

Reference: patent publication US20220098646A1, “DETECTION METHOD OF PAN-RESISTANT K. PNEUMONIAE, SCREENING METHOD OF ANTIMICROBIAL AGENTS, AND RECORDING MEDIA AND DATABASE” (TEIKYO UNIVERSITY, priority 2019, published 2022)
